The test system of data set [1] is TrkB receptor and downstream proteins (PLCγ1, Akt1, ERK1/2). Nature of the data set: Pharmacodynamics: immunoblot of hippocampus and frontal cortex. The data set is classed as in vivo, BALB/c mice. To be noted: 30 min and 2 h after 50 mg/kg p.o. The method, then: (§1) Compound treatment was stopped by lysing cells with N-PER™ Neuronal Protein Extraction Reagent (Thermo Fisher Scientific) containing 1 × PhosSTOP™ (Roche, Basel, Switzerland), 1 × Halt Protease Inhibitor Single-Use Cocktail (ThermoFisher Scientific) and 5 mM EDTA. The lysates were collected by scraping, and centrifuged (8000× g; 10 min at 4 °C), and the protein concentration was determined using a BCA Pierce kit (ThermoFisher Scientific). The lysates were stored at −80 °C until further processing. Samples containing 20 μg of protein were further denatured in 4 × Laemli Buffer with 5% β-mercaptoethanol at 95 °C for 5 min and electrophoresed on gels prepared using a 10% TGX Stain-Free™ FastCast™ Acrylamide Kit (Bio-Rad). Afterwards, the proteins were transferred (wet transfer, 100 V, 60 min) onto nitrocellulose membranes (GE Healthcare, Chicago, IL, USA), which were blocked in 5% BSA in TBS-T (TBS + 0.1% Tween20) for 2 h. […] After repeated washes (TBS-T), the proteins were detected with HRP-conjugated anti-rabbit antibodies (1:4000, RT, 2 h) (Cell Signaling Technology), and the blots were incubated with Clarity Max ECL Western Blotting Substrate (Bio-Rad). Blot images and chemiluminescence signals were captured using a ChemiDoc MP Imaging System, and densitometry values were calculated using the Image Lab software (Bio-Rad). […]
(In western blotting, separated proteins are transferred to a membrane and probed.)

In the next data set the target is T1, A1 (Homo sapiens, UniProt P30542).
T1 construct: purchased Eurofins Discovery (Cerep) BioPrint Profile Panel
T1 sequence (P30542 whole entry): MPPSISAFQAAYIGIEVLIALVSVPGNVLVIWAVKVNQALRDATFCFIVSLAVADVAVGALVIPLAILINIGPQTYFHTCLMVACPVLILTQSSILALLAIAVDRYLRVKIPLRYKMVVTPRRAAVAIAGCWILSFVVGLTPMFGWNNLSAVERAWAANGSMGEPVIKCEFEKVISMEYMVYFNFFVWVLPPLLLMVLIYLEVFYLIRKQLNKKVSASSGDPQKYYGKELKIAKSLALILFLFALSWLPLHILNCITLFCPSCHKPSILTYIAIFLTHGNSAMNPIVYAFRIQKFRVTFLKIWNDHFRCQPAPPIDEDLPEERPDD
Nature of the data set: BioPrint Profile Panel. The note with it: Agonist, Receptor, read-out: % Inhibition of Control Specific Binding. The source says: (§2) The BioPrint® Profile Panel service offered by Eurofins Discovery (Poitiers, France) was chosen to perform selectivity analysis.

Another data set concerns ATPase (Na+/K+). Nature of the data set: BioPrint Profile Panel. The data set is classed as biochemical. The note with it: 10 μM; Non-Kinase Enzyme.
Text: as §2

The next data set deals with T2, Abl kinase (Homo sapiens, UniProt P00519).
T2 construct: purchased Eurofins Discovery (Cerep) BioPrint Profile Panel
T2 sequence (P00519 whole entry): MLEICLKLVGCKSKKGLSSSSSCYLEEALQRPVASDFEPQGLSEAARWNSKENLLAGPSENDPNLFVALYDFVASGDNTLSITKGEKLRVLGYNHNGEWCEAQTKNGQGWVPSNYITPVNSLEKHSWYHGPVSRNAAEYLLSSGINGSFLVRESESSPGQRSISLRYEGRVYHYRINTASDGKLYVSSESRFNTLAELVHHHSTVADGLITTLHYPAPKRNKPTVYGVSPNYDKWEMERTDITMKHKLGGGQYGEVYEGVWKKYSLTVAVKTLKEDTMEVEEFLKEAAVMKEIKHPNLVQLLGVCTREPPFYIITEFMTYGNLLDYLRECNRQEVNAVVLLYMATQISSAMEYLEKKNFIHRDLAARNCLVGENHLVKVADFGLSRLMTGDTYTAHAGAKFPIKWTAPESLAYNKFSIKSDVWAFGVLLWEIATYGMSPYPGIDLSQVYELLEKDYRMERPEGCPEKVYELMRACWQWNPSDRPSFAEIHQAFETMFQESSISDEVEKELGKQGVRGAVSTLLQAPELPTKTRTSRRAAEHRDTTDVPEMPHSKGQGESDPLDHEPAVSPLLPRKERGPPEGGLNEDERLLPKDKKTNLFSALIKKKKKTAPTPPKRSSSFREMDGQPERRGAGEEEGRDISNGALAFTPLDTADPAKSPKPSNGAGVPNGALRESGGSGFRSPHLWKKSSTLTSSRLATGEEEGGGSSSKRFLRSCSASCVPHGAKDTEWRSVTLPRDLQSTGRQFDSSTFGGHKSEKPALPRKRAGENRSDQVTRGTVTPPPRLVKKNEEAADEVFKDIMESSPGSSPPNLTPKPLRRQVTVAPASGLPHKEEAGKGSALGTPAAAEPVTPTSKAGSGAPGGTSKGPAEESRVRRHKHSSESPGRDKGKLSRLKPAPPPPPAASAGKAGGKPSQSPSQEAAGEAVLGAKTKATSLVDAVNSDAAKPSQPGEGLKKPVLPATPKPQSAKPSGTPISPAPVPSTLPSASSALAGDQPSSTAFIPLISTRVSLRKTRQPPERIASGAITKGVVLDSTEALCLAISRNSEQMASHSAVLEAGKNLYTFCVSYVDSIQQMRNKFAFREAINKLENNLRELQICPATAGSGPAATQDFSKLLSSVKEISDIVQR
Nature of the data set: BioPrint Profile Panel. The data set is classed as biochemical. To be noted: read-out: % of specific inhibition.
Text: as §2

The target of another data set is T3, ERK2 (Homo sapiens, UniProt P28482).
T3 construct: purchased Eurofins Discovery (Cerep) BioPrint Profile Panel
T3 sequence (P28482 whole entry): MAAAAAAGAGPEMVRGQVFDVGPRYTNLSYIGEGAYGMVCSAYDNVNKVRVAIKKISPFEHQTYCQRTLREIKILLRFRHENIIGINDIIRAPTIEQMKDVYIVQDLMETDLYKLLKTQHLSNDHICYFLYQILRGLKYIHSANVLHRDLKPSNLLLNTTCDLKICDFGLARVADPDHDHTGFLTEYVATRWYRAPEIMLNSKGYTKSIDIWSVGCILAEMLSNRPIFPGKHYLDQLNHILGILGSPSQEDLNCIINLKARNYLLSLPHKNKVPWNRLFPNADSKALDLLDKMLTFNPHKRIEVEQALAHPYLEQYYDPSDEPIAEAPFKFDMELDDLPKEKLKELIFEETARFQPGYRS
The experiment in a line: BioPrint Profile Panel. The note with it: Kinase, read-out: % of specific inhibition. Type of data set: biochemical.
Text: as §2

For a further data set, the target named is T4, FLT-1 kinase (Homo sapiens, UniProt P17948).
T4 construct: purchased Eurofins Discovery (Cerep) BioPrint Profile Panel
T4 sequence (P17948 27-1338): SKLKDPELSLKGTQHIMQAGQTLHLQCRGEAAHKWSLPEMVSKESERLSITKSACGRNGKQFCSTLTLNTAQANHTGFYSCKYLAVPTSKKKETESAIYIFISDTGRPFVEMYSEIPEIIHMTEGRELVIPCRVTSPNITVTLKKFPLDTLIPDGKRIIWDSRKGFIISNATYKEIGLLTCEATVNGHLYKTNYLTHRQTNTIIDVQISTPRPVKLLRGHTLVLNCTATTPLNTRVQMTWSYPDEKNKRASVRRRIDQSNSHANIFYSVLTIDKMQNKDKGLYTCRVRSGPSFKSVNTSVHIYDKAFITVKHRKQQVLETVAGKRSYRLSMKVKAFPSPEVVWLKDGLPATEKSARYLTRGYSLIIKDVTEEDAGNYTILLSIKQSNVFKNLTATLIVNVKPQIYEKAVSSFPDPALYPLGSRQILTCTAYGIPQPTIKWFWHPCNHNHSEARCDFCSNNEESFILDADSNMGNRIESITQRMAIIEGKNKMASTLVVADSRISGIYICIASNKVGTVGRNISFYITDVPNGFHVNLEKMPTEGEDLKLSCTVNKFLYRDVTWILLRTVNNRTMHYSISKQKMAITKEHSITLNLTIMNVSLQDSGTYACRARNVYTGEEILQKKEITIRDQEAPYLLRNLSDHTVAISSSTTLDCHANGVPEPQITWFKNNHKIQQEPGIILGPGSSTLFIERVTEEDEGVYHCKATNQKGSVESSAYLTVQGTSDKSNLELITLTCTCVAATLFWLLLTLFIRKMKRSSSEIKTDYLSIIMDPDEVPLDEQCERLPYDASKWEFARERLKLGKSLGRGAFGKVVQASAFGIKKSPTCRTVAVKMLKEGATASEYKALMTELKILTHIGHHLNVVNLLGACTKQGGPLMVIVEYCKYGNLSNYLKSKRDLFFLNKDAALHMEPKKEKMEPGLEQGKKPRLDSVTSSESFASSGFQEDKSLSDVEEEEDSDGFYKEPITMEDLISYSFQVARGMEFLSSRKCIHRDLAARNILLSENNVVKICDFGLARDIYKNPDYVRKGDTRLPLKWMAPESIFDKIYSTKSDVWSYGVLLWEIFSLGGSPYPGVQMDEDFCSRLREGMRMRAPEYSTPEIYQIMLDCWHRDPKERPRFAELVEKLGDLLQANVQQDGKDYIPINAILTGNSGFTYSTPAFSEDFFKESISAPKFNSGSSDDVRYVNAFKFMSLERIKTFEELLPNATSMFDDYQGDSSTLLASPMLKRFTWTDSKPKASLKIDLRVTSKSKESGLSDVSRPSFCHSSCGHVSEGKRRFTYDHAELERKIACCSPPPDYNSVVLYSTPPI
The experiment in a line: BioPrint Profile Panel. The data set is classed as biochemical. To be noted: read-out: % of specific inhibition.
Text: as §2

A further data set relates to HIV-1 protease. The experiment in a line: BioPrint Profile Panel. Type of data set: biochemical. The note with it: 10 μM; Non-Kinase Enzyme.
Text: as §2

The target in the next data set is T5, Lyn A kinase (Homo sapiens, UniProt P07948).
T5 construct: purchased Eurofins Discovery (Cerep) BioPrint Profile Panel
T5 sequence (P07948 whole entry): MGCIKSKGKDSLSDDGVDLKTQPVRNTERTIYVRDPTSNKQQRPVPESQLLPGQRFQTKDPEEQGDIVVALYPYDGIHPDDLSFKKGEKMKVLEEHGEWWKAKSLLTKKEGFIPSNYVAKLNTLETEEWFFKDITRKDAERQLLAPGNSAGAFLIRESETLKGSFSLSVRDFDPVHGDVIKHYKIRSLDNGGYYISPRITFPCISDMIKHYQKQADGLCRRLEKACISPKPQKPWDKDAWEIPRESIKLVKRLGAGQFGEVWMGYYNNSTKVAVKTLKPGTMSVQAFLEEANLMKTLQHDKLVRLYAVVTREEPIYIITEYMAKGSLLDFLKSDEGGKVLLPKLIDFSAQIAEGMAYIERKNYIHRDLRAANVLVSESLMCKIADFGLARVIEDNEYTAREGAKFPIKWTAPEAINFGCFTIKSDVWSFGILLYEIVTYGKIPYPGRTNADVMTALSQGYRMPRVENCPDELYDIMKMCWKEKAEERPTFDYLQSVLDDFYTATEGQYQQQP
The experiment in a line: BioPrint Profile Panel. The data set is classed as biochemical.
Text: as §2

The target of another data set is PDE2A1 (Homo sapiens, UniProt O00408). The experiment in a line: BioPrint Profile Panel. The data set is classed as biochemical. The note with it: Non-Kinase Enzyme, read-out: % of specific inhibition.
Sequence of PDE2A1 (O00408 49-941 limits assumed): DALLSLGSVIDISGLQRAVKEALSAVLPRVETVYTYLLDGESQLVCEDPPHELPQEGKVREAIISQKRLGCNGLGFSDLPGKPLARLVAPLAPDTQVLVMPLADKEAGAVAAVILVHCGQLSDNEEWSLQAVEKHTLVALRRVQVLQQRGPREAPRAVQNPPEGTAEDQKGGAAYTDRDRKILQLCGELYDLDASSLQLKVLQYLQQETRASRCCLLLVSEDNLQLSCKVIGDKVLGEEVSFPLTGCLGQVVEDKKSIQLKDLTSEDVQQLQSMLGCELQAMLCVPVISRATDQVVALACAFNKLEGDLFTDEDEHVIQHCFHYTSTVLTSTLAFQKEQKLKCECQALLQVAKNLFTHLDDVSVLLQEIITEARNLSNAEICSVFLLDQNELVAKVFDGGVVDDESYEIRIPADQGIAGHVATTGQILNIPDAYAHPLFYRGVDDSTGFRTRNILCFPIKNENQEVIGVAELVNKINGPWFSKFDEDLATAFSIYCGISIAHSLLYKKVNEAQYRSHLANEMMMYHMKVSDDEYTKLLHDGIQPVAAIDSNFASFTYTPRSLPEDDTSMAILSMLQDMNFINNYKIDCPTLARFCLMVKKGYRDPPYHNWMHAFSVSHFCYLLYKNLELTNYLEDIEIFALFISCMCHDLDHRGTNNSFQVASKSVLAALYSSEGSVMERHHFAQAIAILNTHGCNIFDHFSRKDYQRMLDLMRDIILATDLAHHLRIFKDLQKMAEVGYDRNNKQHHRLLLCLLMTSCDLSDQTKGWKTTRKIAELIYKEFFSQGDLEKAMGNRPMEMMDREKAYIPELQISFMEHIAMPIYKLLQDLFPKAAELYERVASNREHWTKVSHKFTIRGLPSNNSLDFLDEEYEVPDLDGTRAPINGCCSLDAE
Text: as §2

The target of the next data set is T6, acetylcholinesterase (Homo sapiens, UniProt P22303).
T6 construct: purchased Eurofins Discovery (Cerep) BioPrint Profile Panel
The experiment in a line: BioPrint Profile Panel. Type of data set: biochemical. To be noted: Non-Kinase Enzyme, read-out: % of specific inhibition.
Text: as §2

Another data set can be described thus: physchem. The note with it: 25 °C, pH 7.4, aqueous buffer, kinetic from dmso stock, pH 7.4, 4 h.
The next data set concerns ERK1/2 and Akt1. The experiment in a line: Immunoblot, non-differentiated SH-SY5Y cells. Type of data set: cell-based. The method, then:
The SH-SY5Y cell line was purchased from MilliporeSigma and cultured in growth medium: MEM (w/Earle’s Salts; w/L-Glutamine) + Ham’s F12 (w/L-Glutamine) (1:1 v/v), 1 × Antibiotic-Antimycotic, 1 × MEM Non-Essential Amino Acids (all reagents from Biowest, Riverside, MO, USA) and 15% FBS (Gibco, Thermo Fisher Scientific, Waltham, MA, USA). Cells were passaged using 0.25% Trypsin-EDTA (Biowest) and cultured in standard conditions (5% CO2, 37 °C with 95% relative humidity).
as §1, with “processing.” for “processing. Samples containing 20 μg of protein were further denatured in 4 × Laemli Buffer with 5% β-mercaptoethanol at 95 °C for 5 min and electrophoresed on gels prepared using a 10% TGX Stain-Free™ FastCast™ Acrylamide Kit (Bio-Rad). Afterwards, the proteins were transferred (wet transfer, 100 V, 60 min) onto nitrocellulose membranes (GE Healthcare, Chicago, IL, USA), which were blocked in 5% BSA in TBS-T (TBS + 0.1% Tween20) for 2 h.”

The nature of a further data set: PAMPA. To be noted: 10 μM, 4 h. For orientation: PAMPA measures passive passage across an artificial lipid membrane.
A further data set concerns the target T7, exTrkB (Homo sapiens, UniProt Q16620).
T7 construct: human TrkB receptor (exTrkB), residues 1−430, was cloned into the pCMV2 expression vector; made in house; host or cells: ExpiCHO-S cells
Nature of the data set: Ligand-induced exTrkB dimerization assay (native electrophoresis). The data set is classed as biochemical. To be noted: exTrkB:ligand 1:1, non-reducing conditions. The method, then: The native exTrkB, BDNF, and tested compounds were separately diluted with PBS (pH 7.4) to a final concentration of 2.5 μM. Then, exTrkB, BDNF, or the tested compound were mixed (1:1 v/v) and incubated at 25 °C for 10 min, and 2X Sample Buffer (0.6 M Tris, 20% glycerol, 0.02% Bromophenol Blue, pH 6.8) was added to the samples. Afterwards, the samples were loaded into Stain-Free gels (10% Mini-PROTEAN® TGX Stain-Free™ Protein Gels; Bio-Rad, Hercules, CA, USA) and separated in non-reducing conditions using SDS-free electrophoresis buffer (192 mM glycine, 25 mM Tris; pH 8.3). Visualization of the protein bands was performed using a ChemiDoc MP Imaging System (Bio-Rad).

Converted amounts (≈) assume the structure as drawn. “Also recorded” adds a separate entry of the source.

The values below come from PMC8398766, “Do Small Molecules Activate the TrkB Receptor in the Same Manner as BDNF? Limitations of Published TrkB Low Molecular Agonists and Screening for Novel TrkB Orthosteric Agonists” (Pharmaceuticals, 2021).

T7 sequence (Q16620 32-430): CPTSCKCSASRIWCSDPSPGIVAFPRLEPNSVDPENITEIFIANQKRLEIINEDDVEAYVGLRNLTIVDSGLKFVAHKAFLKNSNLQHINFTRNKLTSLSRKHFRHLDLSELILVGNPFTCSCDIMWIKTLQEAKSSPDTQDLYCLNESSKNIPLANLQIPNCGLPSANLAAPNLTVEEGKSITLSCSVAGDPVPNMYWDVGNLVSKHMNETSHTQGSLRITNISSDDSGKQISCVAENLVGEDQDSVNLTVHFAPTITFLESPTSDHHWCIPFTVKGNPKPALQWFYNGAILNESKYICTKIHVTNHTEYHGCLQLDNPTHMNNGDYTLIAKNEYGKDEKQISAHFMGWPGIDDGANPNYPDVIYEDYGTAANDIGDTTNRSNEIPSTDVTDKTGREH

For the molecule `O=c1cc(-c2ccccc2)oc2c(O)c(O)ccc12` [7,8-DHF, 7,8-dihydroxyflavone], the “Activation of the TrkB receptor (phosphorylation)” value in data set [1] was “did not observe any activation; also recorded: no effect”. The “PLCγ1, Akt1, and ERK1/2 phosphorylation” value in data set [1] is “no impact”. Moreover, the inhibition at 10 µM on A1 is 99%; on Abl kinase, 25%; at ERK2 it was -23%; on FLT-1 kinase, 17%; on Lyn A kinase (read-out: % Inhibition of Control Specific Binding) it was 53%; on PDE2A1, 5%. Further, the inhibition at 10 µM on acetylcholinesterase amounted to 5%. Further, the “% of specific inhibition” value was -2% in the data set with ATPase (Na+/K+) and 1% in the data set on HIV-1 protease. The “% Inhibition of Control Specific Binding” value on Lyn A kinase (10 μM) is given as 52.6%. Also, the solubility (kinetic) at 4 h in “physchem” amounted to 303 µM (≈ 77 µg/mL).

Consider `C=CC(C)(C)c1[nH]c2ccccc2c1C1=C(O)C(=O)C(c2c[nH]c3c(CC=C(C)C)cccc23)=C(O)C1=O` [DMAQ-B1], for which the “Phosphorylation of ERK1/2 and Akt1” value with ERK1/2 and Akt1 is listed as “significantly induce”. The PAMPA in “PAMPA” was 6.93 10^−6·cm/s.

B1: BDNF: Brain-derived neurotrophic factor, endogenous TrkB receptor agonist (protein, UniProt P23560 19-247, looked up)
Neurotrophic factor BDNF …: APMKEANIRGQGGLAYPGVRTHGTLESVNGPKAGSRGLTSLADTFEHVIEELLDEDQKVRPNEENNKDADLYTSRVMLSSQVPLEPPLLFLLEEYKNYLDAANMSMRVRRHSDPARRGELSVCDSISEWVTAADKKTAVDMSGGTVTVLEKVPVSKGQLKQYFYETKCNPMGYTKEGCRGIDKRHWNSQCRTTQSYVRALTMDSKKRIGWRFIRIDTSCVCTLTIKRGR
Regarding B1, the “TrkB Dimerization” value in the data set with exTrkB is “YES”.

As usually defined, the inhibition is the relative decrease from the control value, in per cent. Usually kinetic solubility stands for solubility judged after dilution from a stock solution rather than from solid.
